Data on six compounds can be found in patent publication US20250195513A1, “DEGRADATION OF IRAK4 BY CONJUGATION OF IRAK4 INHIBITORS WITH E3 LIGASE LIGAND AND METHODS OF USE” (BeiGene, Ltd., priority 2022, published 2025).

In assay [1] the target is T1, IRAK4 (Homo sapiens, UniProt Q9NWZ3).
T1 construct: endogenous in cells; host or cells: Karpas299
T1 sequence (Q9NWZ3 1-460): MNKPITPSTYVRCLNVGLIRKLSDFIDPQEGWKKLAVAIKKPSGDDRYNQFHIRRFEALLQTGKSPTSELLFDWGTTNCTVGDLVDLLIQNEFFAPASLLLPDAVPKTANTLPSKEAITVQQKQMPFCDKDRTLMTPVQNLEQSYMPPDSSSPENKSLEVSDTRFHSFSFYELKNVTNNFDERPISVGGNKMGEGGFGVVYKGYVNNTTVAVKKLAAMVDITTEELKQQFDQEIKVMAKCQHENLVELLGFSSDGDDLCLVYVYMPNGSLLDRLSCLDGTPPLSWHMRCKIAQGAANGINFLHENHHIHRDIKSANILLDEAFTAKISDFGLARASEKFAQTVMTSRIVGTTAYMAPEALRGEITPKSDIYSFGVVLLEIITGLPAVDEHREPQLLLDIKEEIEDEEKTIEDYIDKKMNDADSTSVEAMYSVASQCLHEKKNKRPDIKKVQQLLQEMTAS
Description: IRAK4 Degradation Assay (Karpas299, HTRF/TR-FRET). The note with it: Karpas-299 cells, 24 h treatment; for Dmax: maximum percentage of degradation, read-out: IRAK4 in Karpas-299 (24 h) Dmax (%); for DC50: read-out: IRAK4 in Karpas-299 (24 h) DC50. It is filed as cell-based. In a few lines: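 Karpas299 cells at 0.2 million per well were exposed to serially diluted compounds for 24 h or 5 h, then lysed. IRAK4 remaining in lysates was quantified by HTRF (665/620 nm) after overnight antibody incubation at room temperature. Percent degradation was fitted to a four-parameter curve to give IC50 (DC50).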

In assay [2] the target is T1, IRAK4. Description: IRAK4 Degradation Assay with Human Serum (Karpas299, HTRF/TR-FRET). It is filed as cell-based. The note with it: Karpas-299 in human serum, 24 hrs treatment; for DC50: read-out: IRAK4 degradtion with human serum assay DC50; for Dmax: read-out: IRAK4 degradtion with human serum assay Dmax (%). In outline:
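Karpas299 cells in human AB serum (0.2 million/well) treated with serial compound dilutions for 24 h. After lysis, IRAK4 quantified by HTRF (overnight antibody incubation at room temperature, 665/620 nm read). Degradation percentage fitted to four-parameter curve to give DC50.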

With `COC[C@H]1CN([C@H]2CC[C@H](n3cc4cc(NC(=O)c5ccc6cc(C#N)cnn56)c(C(C)(C)O)cc4n3)CC2)CCN1CC1CCN(c2ccc3c(c2)CN(C2CCC(=O)NC2=O)C3=O)CC1` (stereo partly drawn) [Example 402, 3-cyano-N-(2-((1R,4r)-4-((3R)-4-((1-(2-(2,6-dioxopiperidin-3-yl)-1-oxoisoindolin-5-yl)piperidin-4-yl)methyl)-3-(methoxymethyl)piperazin-1-yl)cyclohexyl)-6-(2-hydroxypropan-2-yl)-2H-indazol-5-yl)pyrrolo[1,2-b]pyridazine-7-carboxamide], the values for the Dmax at IRAK4 [1] and at IRAK4 [2] were 95% and 87%, respectively. Besides, the DC50 was 0.9 nM at IRAK4 [1] and 5.5 nM at IRAK4 [2].
For `CC(C)(O)c1cc2nn([C@H]3CC[C@H](N4CCN(CC5CN(c6cc(F)c([C@H]7CCC(=O)NC7=O)c(F)c6)C5)CC4)CC3)cc2cc1NC(=O)c1coc2cccnc12` [Example 403, N-(2-((1r,4r)-4-(4-((1-(4-((R)-2,6-dioxopiperidin-3-yl)-3,5-difluorophenyl)azetidin-3-yl)methyl)piperazin-1-yl)cyclohexyl)-6-(2-hydroxypropan-2-yl)-2H-indazol-5-yl)furo[3,2-b]pyridine-3-carboxamide] the same measures were 96%, 99%, 0.7 nM and 3.5 nM.
`CC(C)(O)c1cc2nn([C@H]3CC[C@H](N4CCN(C5CN(c6cc(F)c([C@H]7CCC(=O)NC7=O)c(F)c6)C5)CC4)CC3)cc2cc1NC(=O)c1coc2cccnc12` [Example 404, N-(2-((1R,4r)-4-(4-(1-(4-((R)-2,6-dioxopiperidin-3-yl)-3,5-difluorophenyl)azetidin-3-yl)piperazin-1-yl)cyclohexyl)-6-(2-hydroxypropan-2-yl)-2H-indazol-5-yl)furo[3,2-b]pyridine-3-carboxamide]: on IRAK4 [1], the Dmax was found to be 93% and the DC50 is 0.8 nM. Moreover, on IRAK4 [2], the DC50 came to 5.4 nM and the Dmax came to 94%.
For `CC(C)(O)c1cc2nn([C@H]3CC[C@H](C4CCN(C5CCN(c6cc(F)c([C@H]7CCC(=O)NC7=O)c(F)c6)CC5)CC4)CC3)cc2cc1NC(=O)c1ccc2cc(C#N)cnn12` [Example 409, 3-cyano-N-(2-((1r,4r)-4-(1′-(4-((R)-2,6-dioxopiperidin-3-yl)-3,5-difluorophenyl)-[1,4′-bipiperidin]-4-yl)cyclohexyl)-6-(2-hydroxypropan-2-yl)-2H-indazol-5-yl)pyrrolo[1,2-b]pyridazine-7-carboxamide] the same measures were 97%, 3.5 nM, 10 nM and 96%.
For `COC[C@@H]1CN([C@H]2CC[C@H](n3cc4cc(NC(=O)c5ccc6cc(C#N)cnn56)c(C(C)(C)O)cc4n3)CC2)CCN1C(=O)C1CN(c2cc(F)c(N3CCC(=O)NC3=O)c(F)c2)C1` [Example 410, 3-cyano-N-(2-((1S,4r)-4-((S)-4-(1-(4-(2,4-dioxotetrahydropyrimidin-1(2H)-yl)-3,5-difluorophenyl)azetidine-3-carbonyl)-3-(methoxymethyl)piperazin-1-yl)cyclohexyl)-6-(2-hydroxypropan-2-yl)-2H-indazol-5-yl)pyrrolo[1,2-b]pyridazine-7-carboxamide] the same measures were 98%, 1.8 nM, 18 nM and 91%.
The corresponding values for `CC(C)(O)c1cc2nn([C@H]3CC[C@H](N4CCN(CCc5cc(F)c([C@H]6CCC(=O)NC6=O)c(F)c5)CC4)CC3)cc2cc1NC(=O)c1ccc2cc(Br)cnn12` [Example 414, 3-bromo-N-(2-((1R,4r)-4-(4-(4-((R)-2,6-dioxopiperidin-3-yl)-3,5-difluorophenethyl)piperazin-1-yl)cyclohexyl)-6-(2-hydroxypropan-2-yl)-2H-indazol-5-yl)pyrrolo[1,2-b]pyridazine-7-carboxamide] are 96%, 1.5 nM, 439 nM and 97%.
